Where two headings read alike, the source gives them in different places.
Columns and labels:
[1] = biological target: wild-type EZH2-containing PRC2 complex (Homo sapiens, UniProt Q15910); settings: see PCT/US2019/027932, read-out: half-maximal inhibitory concentration (IC50), catalytic activity; cited from earlier work
[2] = tested on: H3K27me3 in ovarian cancer TOV21G cell line; assay: Global H3K27me3 intracellular levels, TOV21G; format: cell-based; settings: Homo sapiens, 72 h, Day 3, read-out: EC50, reduction of global H3K27me3 levels
HT1376 tumors = assay: Antitumor effect in HT1376 tumors; format: in vivo; settings: HT1376 tumors in CB17 SCID mice; FIG. 4
Source text: FIG. 4 illustrates the antitumor effect of Compound 1, cisplatin, and the combination of both in HT1376 tumors in CB17 SCID mice. Data shown are mean tumor size±SEM, n=6. PO=oral administration, IV=intravenous administration, QD=once per day, QW=once per week.

[3] = tested on: H3K27me3 in HT1197 bladder cancer cell line; assay: Global H3K27me3 intracellular levels, HT1197; format: cell-based; settings: Homo sapiens, 72 h; HT1197, Day 3; read-out: EC50, reduction of global H3K27me3 levels
[4] = tested on: gene expression in bladder cancer cell lines; assay: RNA-sequencing of bladder cancer cell lines; format: cell-based; settings: treatment for 4 days
Source text: Reduction in H3K27me3 levels result in changes in gene expression. RNA-sequencing of bladder cancer cell lines after treatment with Compound 1 for 4 days results in significant changes in the expression levels of multiple genes. […] The increase in gene expression is both dose and time dependent, with increasing expression observed at higher concentrations of Compound 1 and at later timepoints. This contrasts with reductions of H3K27me3 as methyl mark changes were observed after 1 day of Compound 1 treatment. […] See Yang X, Karuturi R K, Sun F, et al. CDKN1C (p57) is a direct target of EZH2 and suppressed by multiple epigenetic mechanisms in breast cancer cells. PLoS One. 2009; 4(4):e5011. Low expression of CDKN1C is seen in advanced bladder and breast cancers and is correlated with poor prognosis. See Yang above and Hoffmann M J, Florl A R, Seifert H H, et al. Multiple mechanisms downregulate CDKN1C in human bladder cancer. Int J Cancer. 2005 Apr. 10; 114(3):406-13.

[5] = biological target: Y641N mutant EZH2-containing PRC2 complex (Homo sapiens, UniProt Q15910, Y641N); settings: see PCT/US2019/027932, read-out: half-maximal inhibitory concentration (IC50), catalytic activity; cited from earlier work
Y641N mutant EZH2-containing PRC2 complex, sequence (Q15910 whole entry Y641N): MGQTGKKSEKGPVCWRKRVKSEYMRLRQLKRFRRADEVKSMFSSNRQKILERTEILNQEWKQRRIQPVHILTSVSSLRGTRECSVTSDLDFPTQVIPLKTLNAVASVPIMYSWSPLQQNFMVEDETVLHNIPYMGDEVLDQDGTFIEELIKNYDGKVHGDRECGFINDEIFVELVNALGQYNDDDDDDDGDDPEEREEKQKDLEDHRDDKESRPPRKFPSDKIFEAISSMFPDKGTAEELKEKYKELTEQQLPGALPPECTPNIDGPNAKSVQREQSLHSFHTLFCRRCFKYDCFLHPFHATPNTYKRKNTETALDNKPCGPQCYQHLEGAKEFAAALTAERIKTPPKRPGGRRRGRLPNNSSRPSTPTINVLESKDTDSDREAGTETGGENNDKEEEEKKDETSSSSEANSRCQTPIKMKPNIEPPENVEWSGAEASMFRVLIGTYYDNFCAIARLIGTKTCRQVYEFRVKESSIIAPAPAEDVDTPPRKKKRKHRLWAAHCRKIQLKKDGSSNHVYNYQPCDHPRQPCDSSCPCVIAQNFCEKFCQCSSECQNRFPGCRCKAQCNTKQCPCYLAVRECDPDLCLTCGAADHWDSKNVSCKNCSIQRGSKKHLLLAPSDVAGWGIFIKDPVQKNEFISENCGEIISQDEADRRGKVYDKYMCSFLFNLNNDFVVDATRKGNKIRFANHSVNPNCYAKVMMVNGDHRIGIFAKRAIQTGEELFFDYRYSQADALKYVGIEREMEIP
Y641N mutant EZH2-containing PRC2 complex, sequence (O75530 whole entry partner): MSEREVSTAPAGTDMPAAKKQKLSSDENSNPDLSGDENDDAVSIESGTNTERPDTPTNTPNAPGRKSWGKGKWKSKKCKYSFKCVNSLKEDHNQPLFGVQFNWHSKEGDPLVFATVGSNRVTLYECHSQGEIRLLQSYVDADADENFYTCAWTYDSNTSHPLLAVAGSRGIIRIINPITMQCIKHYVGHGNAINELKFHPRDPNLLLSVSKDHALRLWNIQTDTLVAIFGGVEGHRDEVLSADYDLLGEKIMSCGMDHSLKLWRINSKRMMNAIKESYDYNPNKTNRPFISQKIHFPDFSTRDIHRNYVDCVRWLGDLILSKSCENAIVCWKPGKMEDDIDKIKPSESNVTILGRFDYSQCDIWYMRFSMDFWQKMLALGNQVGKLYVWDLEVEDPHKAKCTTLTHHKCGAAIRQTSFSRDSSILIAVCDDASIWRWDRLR
Y641N mutant EZH2-containing PRC2 complex, sequence (Q15022 whole entry partner): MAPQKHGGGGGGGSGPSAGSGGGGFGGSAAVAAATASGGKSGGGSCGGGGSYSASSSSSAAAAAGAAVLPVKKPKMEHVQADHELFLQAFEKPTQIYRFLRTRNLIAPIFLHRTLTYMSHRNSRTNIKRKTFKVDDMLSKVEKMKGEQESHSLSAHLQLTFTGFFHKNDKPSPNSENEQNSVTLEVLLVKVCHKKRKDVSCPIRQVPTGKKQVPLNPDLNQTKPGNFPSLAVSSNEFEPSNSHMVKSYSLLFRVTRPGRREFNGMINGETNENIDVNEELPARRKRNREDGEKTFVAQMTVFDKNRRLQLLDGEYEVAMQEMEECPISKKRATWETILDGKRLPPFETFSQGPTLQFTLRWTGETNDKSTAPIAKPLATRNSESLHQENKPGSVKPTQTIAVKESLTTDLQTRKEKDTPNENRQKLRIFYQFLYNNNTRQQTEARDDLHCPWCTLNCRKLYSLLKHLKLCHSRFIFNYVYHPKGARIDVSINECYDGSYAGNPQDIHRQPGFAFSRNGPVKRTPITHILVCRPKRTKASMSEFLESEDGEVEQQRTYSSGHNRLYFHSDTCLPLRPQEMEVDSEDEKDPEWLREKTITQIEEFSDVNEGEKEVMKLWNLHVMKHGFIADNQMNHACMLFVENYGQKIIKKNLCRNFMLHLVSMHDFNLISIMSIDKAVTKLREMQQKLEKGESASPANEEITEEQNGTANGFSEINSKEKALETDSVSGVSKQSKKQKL
Y641N mutant EZH2-containing PRC2 complex, sequence (Q09028 whole entry partner): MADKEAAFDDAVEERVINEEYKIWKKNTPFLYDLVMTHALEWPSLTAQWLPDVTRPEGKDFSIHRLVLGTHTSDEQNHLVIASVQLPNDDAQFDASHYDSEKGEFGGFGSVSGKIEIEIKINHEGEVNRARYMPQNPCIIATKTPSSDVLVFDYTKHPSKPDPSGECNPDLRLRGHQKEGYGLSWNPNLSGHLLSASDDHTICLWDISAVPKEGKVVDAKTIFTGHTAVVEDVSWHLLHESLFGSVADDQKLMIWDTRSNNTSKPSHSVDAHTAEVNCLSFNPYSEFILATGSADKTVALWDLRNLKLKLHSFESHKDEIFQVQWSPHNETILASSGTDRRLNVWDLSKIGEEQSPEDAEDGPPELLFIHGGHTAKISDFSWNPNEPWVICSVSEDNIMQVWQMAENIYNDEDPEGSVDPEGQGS

EZH2 (PRC2) [6] = biological target: T1, EZH2 (PRC2) (Homo sapiens, UniProt Q15910); settings: binding to PRC2 complex, see PCT/US2019/027932, cited from earlier work
T1 sequence (Q15910 whole entry): as the sequence (Q15910 whole entry Y641N) above, with N641Y counted along it
T1 sequence (O75530 whole entry partner): as the sequence (O75530 whole entry partner) above
T1 sequence (Q15022 whole entry partner): as the sequence (Q15022 whole entry partner) above
T1 sequence (Q09028 whole entry partner): as the sequence (Q09028 whole entry partner) above

[7] = tested on: H3K27me3 in HeLa (wild-type EZH2-containing cervical cancer cell line); settings: after 4 days of treatment, see PCT/US2019/027932, read-out: EC50, reduction of global H3K27me3 levels; cited from earlier work
EZH2 (PRC2) [8] = biological target: T1, EZH2 (PRC2); assay: Kinetic assays characterising binding to PRC2; settings: from kinetic assays
Experimental: In biochemical assays, Compound 1 suppresses catalytic activity of wild-type and Y641N mutant EZH2-containing PRC2 complex, as well as EZH1-containing PRC2 complex, with half-maximal inhibitory concentrations (IC50) values of 0.02 and 0.03 nM for wild-type and Y641N mutant EZH2, respectively, and 0.06 nM for EZH1. See e.g., PCT/US2019/027932. […] Based-upon the kinetic analysis it was determined that Compound 1 binds to PRC2 with a long residence time (approximately 101 days). See e.g., PCT/US2019/027932.

[9] = biological target: EZH1-containing PRC2 complex (Homo sapiens, UniProt Q92800); settings: see PCT/US2019/027932, read-out: half-maximal inhibitory concentration (IC50), catalytic activity; cited from earlier work
EZH1-containing PRC2 complex, sequence (Q92800 whole entry): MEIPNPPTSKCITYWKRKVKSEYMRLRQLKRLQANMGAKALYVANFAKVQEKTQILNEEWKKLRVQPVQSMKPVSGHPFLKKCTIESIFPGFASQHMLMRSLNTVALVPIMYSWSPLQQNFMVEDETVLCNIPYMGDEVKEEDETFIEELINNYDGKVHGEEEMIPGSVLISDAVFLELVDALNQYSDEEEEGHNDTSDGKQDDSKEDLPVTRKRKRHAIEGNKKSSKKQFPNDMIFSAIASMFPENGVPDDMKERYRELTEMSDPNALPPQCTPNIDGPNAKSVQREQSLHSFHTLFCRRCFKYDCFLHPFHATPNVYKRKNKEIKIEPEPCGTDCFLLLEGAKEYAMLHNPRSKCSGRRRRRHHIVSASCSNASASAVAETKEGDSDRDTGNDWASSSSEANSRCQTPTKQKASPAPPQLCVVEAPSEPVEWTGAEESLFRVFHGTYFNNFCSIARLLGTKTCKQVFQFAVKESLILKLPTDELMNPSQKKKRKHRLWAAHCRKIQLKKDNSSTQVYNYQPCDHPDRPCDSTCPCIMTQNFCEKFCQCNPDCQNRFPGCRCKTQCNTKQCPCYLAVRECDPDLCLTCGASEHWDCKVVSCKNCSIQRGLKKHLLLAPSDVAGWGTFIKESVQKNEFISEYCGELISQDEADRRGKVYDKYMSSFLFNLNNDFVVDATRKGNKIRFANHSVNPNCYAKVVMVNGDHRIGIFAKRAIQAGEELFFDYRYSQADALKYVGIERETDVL
EZH1-containing PRC2 complex, sequence (O75530 whole entry partner): as the sequence (O75530 whole entry partner) above
EZH1-containing PRC2 complex, sequence (Q15022 whole entry partner): as the sequence (Q15022 whole entry partner) above
EZH1-containing PRC2 complex, sequence (Q09028 whole entry partner): as the sequence (Q09028 whole entry partner) above

[10] = tested on: HT1376 (bladder cancer) cell lines, HT1376-DMF and HT1376-CR; assay: Antiproliferative activity in HT1376 bladder cancer cell lines; format: cell-based; settings: cisplatin resistant HT1376-CR versus age-matched DMF control HT1376-DMF; FIG. 1A/1B
Experimental: (§1) Data shown are mean cell viability±standard error of the mean (SEM), n=2-3 and are representative of duplicate independent experiments.
(§2) Representative of duplicate independent experiments; mean±SD shown.
(§3) The sensitivity of multiple solid tumor cancer cell lines to the antiproliferative activity of Compound 1 with and without cisplatin was evaluated. […] Combination treatment with Compound 1 and cisplatin, however, led to greater than 50% reduction in growth.

[11] = tested on: H3K27me3 in 639V bladder cancer cell line; assay: Global H3K27me3 intracellular levels, 639V; format: cell-based; settings: Homo sapiens, 72 h, Day 3, read-out: EC50, reduction of global H3K27me3 levels
[12] = tested on: A2780 (ovarian cancer) cell lines, A2780-P and A2780-CR; assay: Antiproliferative activity in A2780 ovarian cancer cell lines; format: cell-based; settings: cisplatin resistant A2780-CR versus parental A2780-P; FIG. 1A/1B
Experimental: as §1, §2, §3

wild-type EZH2-containing PRC2 complex, sequence (Q15910 whole entry): as the sequence (Q15910 whole entry Y641N) above, with N641Y counted along it
wild-type EZH2-containing PRC2 complex, sequence (O75530 whole entry partner): as the sequence (O75530 whole entry partner) above
wild-type EZH2-containing PRC2 complex, sequence (Q15022 whole entry partner): as the sequence (Q15022 whole entry partner) above
wild-type EZH2-containing PRC2 complex, sequence (Q09028 whole entry partner): as the sequence (Q09028 whole entry partner) above

EC50 [2] [nM] | EC50 [3] [nM] | selectivity for EZH2 over EZH1 (EZH2 (PRC2) [8]) | EC50 [11] [nM] | SMILES | IC50 [1] [nM] | tumor growth (HT1376 tumors) | CDKN1C (p57, Kip2) gene expression [4] | IC50 [5] [nM] | residence time (EZH2 (PRC2) [6]) | residence time (EZH2 (PRC2) [6]; listed as 7-chloro-2-(4-(3-methoxyazetidin-1-yl)cyclohexyl)-2,4-dimethyl-N-(6-methyl-4-(m))) [days] | EC50 [7] [nM] | IC50 [9] [nM] | sensitivity (cell viability) to single treatment [10] | sensitivity (cell viability) to single treatment [12]
0.26 | 0.14 | approximately 70 fold | 0.09 | COC1CN(C2CCC(C3(C)Oc4c(Cl)cc(C(=O)NCc5c(SC)cc(C)[nH]c5=O)c(C)c4O3)CC2)C1 (single isomer, unassigned) [Compound 1, 7-chloro-2-(4-(3-methoxyazetidin-1-yl)cyclohexyl)-2,4-dimethyl-N-((6-methyl-4-(methylthio)-2-oxo-1,2-dihydropyridin-3-yl)methyl)benzo[d][1,3]dioxole-5-carboxamide] | 0.02 | effective in reducing tumor growth | highly upregulated | 0.03 | approximately 101 days | ~101 | 0.4 | 0.06 | strongly sensitive | strongly sensitive
 |  |  |  | N.N.[Cl][Pt][Cl] [cisplatin, reference compound] |  |  |  |  |  |  |  |  | less sensitive | less sensitive
